Patent US9328374B2, “Selective culture medium and method for detecting carbapenem-resistant bacteria in a test sample” (Institut National de la Sante et de la Recherche Medicale …, priority 2011, dated 2016)
“And” between values parts separate entries of the source, which are not always exact repeats. Equal values may be shown once.

Assays:
P. mirabilis = assay: MIC of imipenem, ertapenem and meropenem; format: cell-based
K. pneumoniae = assay: MIC of imipenem, ertapenem and meropenem; format: cell-based, Klebsiella pneumoniae

`C[C@@H](O)[C@H]1C(=O)N2C(C(=O)O)=C(S[C@@H]3CN[C@H](C(=O)N(C)C)C3)[C@H](C)[C@H]12` [MEM, meropenem] was tested. Which MIC (P. mirabilis; P. mirabilis 1031 (CTX-M-14 + TEM-1 + SHV-11)) did it give?
The MIC was 0.032 µg/mL.

And the MIC (P. mirabilis; P. mirabilis 1031, CTX-M-14 + TEM-1 + SHV-11, non-carbapenemase producer)?
The MIC was 0.032 µg/mL.

And the MIC (P. mirabilis; P. mirabilis PMA (ACC-1))?
The MIC was 0.12 µg/mL and 0.064 µg/mL.

What about the MIC (P. mirabilis; P. mirabilis PMA, ACC-1, non-carbapenemase producer) of the same compound?
Its MIC is 0.064 µg/mL.

And the MIC (K. pneumoniae; K. pneumoniae 1 OMA (NDM-1 + CTX-M-15 + OXA-1 + OXA-9))?
The MIC was greater than 32 µg/mL.

What about the MIC (K. pneumoniae; K. pneumoniae 2 OLA (NDM-1 + OXA-1)) of the same compound?
The MIC was 2 µg/mL.

What about the MIC (K. pneumoniae; K. pneumoniae 7 AFR (NDM-1 + OXA-1 + CTX-M-15 + CMY-6 + TEM-1)) of the same compound?
The MIC was greater than 32 µg/mL.

And the MIC (K. pneumoniae; K. pneumoniae 7AFR, NDM-1 + TEM-1 + CTX-M-15 + CMY-6 + OXA-1)?
The MIC was greater than 32 µg/mL.

And the MIC (K. pneumoniae; K. pneumoniae 0227, SHV-1, non-carbapenemase producer)?
The MIC was 0.016 µg/mL.

And the MIC (K. pneumoniae; K. pneumoniae 588, KPC-2 + TEM-1 + SHV-11 + OXA-9)?
Its MIC is 16 µg/mL.

And the MIC (K. pneumoniae; K. pneumoniae 1022, SHV-2a + SHV-28, non-carbapenemase producer)?
Its MIC is 0.023 µg/mL.

What about the MIC (K. pneumoniae; K. pneumoniae 1025 (CTX-M-14 + TEM-1 + SHV-11)) of the same compound?
Its MIC is 0.016 µg/mL.

What about the MIC (K. pneumoniae; K. pneumoniae 1025, CTX-M-14 + TEM-1 + SHV-11, non-carbapenemase producer) of the same compound?
Its MIC is 0.016 µg/mL.

What about the MIC (K. pneumoniae; K. pneumoniae 2303, KPC-2 + SHV-11) of the same compound?
The MIC was greater than 32 µg/mL.

What about the MIC (K. pneumoniae; K. pneumoniae 6642 GEN (NDM-1 + CTX-M-15 + OXA-1 + OXA-10)) of the same compound?
The MIC was 3 µg/mL.

And the MIC (K. pneumoniae; K. pneumoniae 6642 GEN, NDM-1 + CTX-M-15 + OXA-1 + OXA-10)?
The MIC was 3 µg/mL.

What about the MIC (K. pneumoniae; K. pneumoniae 6759 GEN (NDM-1 + CTX-M-15 + OXA-1 + OXA-9 + OXA-10 + CMY16)) of the same compound?
Its MIC is greater than 32 µg/mL.

And the MIC (K. pneumoniae; K. pneumoniae 6759 GEN, NDM-1 + CTX-M-15 + CMY-16 + OXA-1 + OXA-9 + OXA-10)?
Its MIC is greater than 32 µg/mL.

And the MIC (K. pneumoniae; K. pneumoniae 7725 (SHV-1))?
The MIC was 0.032 µg/mL.

What about the MIC (K. pneumoniae; K. pneumoniae 7725, SHV-1, non-carbapenemase producer) of the same compound?
Its MIC is 0.032 µg/mL.

And the MIC (K. pneumoniae; K. pneumoniae 10112, CTX-M-15 + TEM-1 + SHV-11, non-carbapenemase producer)?
Its MIC is 0.023 µg/mL.

And the MIC (K. pneumoniae; K. pneumoniae 0404020, VIM-1+ SHV-5)?
Its MIC is greater than 32 µg/mL.

And the MIC (K. pneumoniae; K. pneumoniae 0404024, VIM-1)?
Its MIC is greater than 32 µg/mL.

What about the MIC (K. pneumoniae; K. pneumoniae 0511135, VIM-1+ SHV-12) of the same compound?
Its MIC is greater than 32 µg/mL.

And the MIC (K. pneumoniae; K. pneumoniae 648236 (SHV-2a))?
Its MIC is 0.38 µg/mL.

What about the MIC (K. pneumoniae; K. pneumoniae 648236, SHV-2a, non-carbapenemase producer, porin deficiency) of the same compound?
The MIC was 0.38 µg/mL.

And the MIC (K. pneumoniae; K. pneumoniae 0709121, IMP-1)?
Its MIC is 1 µg/mL.

What about the MIC (K. pneumoniae; K. pneumoniae 0709124, IMP-1 + TEM-15) of the same compound?
The MIC was 2 µg/mL.

And the MIC (K. pneumoniae; K. pneumoniae 0709125, IMP-1 + TEM-1 + SHV-12)?
The MIC was 2 µg/mL.

And the MIC (K. pneumoniae; K. pneumoniae 0709127, IMP-1 + TEM-1)?
The MIC was 1 µg/mL.

And the MIC (K. pneumoniae; K. pneumoniae A28006, KPC-2 + TEM-1 + CTX-M-2 + SHV-11)?
The MIC was 32 µg/mL.

And the MIC (K. pneumoniae; K. pneumoniae A33504, KPC-2 + TEM-1 + SHV-11 + CTX-M-2 + OXA-9)?
The MIC was greater than 32 µg/mL.

And the MIC (K. pneumoniae; K. pneumoniae AEL, OXA-48 + CTX-M-15 + SHV-28 + OXA-1)?
The MIC was 0.38 µg/mL.

And the MIC (K. pneumoniae; K. pneumoniae ALE (CTX-M-15 + SHV-1))?
Its MIC is 4 µg/mL.

What about the MIC (K. pneumoniae; K. pneumoniae ALE, CTX-M-15 + SHV-1, non-carbapenemase producer, porin deficiency) of the same compound?
Its MIC is 4 µg/mL.

And the MIC (K. pneumoniae; K. pneumoniae AMS (OXA-48 + TEM-1 + CTX-M-15 + OXA-1))?
The MIC was 0.38 µg/mL.

And the MIC (K. pneumoniae; K. pneumoniae AMS, OXA-48 + TEM-1 + CTX-M-15 + OXA-1)?
Its MIC is 0.38 µg/mL.

What about the MIC (K. pneumoniae; K. pneumoniae BAJ (OXA-48 + TEM-1 + CTX-M-15 + SHV-28)) of the same compound?
The MIC was 0.38 µg/mL.

And the MIC (K. pneumoniae; K. pneumoniae BAJ, OXA-48 + TEM-1 + CTX-M-15 + SHV-28)?
The MIC was 0.38 µg/mL.

And the MIC (K. pneumoniae; K. pneumoniae BED (CTX-M-15 + TEM-1 + SHV-1; Table 8: SHV-11))?
Its MIC is 4 µg/mL.

What about the MIC (K. pneumoniae; K. pneumoniae BED, CTX-M-15 + TEM-1 + SHV-11, non-carbapenemase producer, porin deficiency) of the same compound?
Its MIC is 4 µg/mL.

What about the MIC (K. pneumoniae; K. pneumoniae BEL (OXA-48)) of the same compound?
The MIC was 1 µg/mL.

What about the MIC (K. pneumoniae; K. pneumoniae BEL, OXA-48) of the same compound?
The MIC was 1 µg/mL.

And the MIC (K. pneumoniae; K. pneumoniae BEN (OXA-48 + TEM-1 + CTX-M-15 + SHV-28))?
Its MIC is 0.25 µg/mL.

What about the MIC (K. pneumoniae; K. pneumoniae BEN, OXA-48 + TEM-1 + CTX-M-15 + SHV-28) of the same compound?
Its MIC is 0.25 µg/mL.

And the MIC (K. pneumoniae; K. pneumoniae BER (TEM-1 + SHV-28))?
Its MIC is 1 µg/mL.

What about the MIC (K. pneumoniae; K. pneumoniae BER, SHV-28 + TEM-1, non-carbapenemase producer, porin deficiency) of the same compound?
The MIC was 1 µg/mL.

What about the MIC (K. pneumoniae; K. pneumoniae BEY (OXA-48 + CTX-M-15 + TEM-1)) of the same compound?
The MIC was 0.38 µg/mL.

What about the MIC (K. pneumoniae; K. pneumoniae BEY, OXA-48 + TEM-1 + CTX-M-15) of the same compound?
Its MIC is 0.38 µg/mL.

And the MIC (K. pneumoniae; K. pneumoniae BIC (OXA-48))?
The MIC was 0.5 µg/mL.

And the MIC (K. pneumoniae; K. pneumoniae BIC, OXA-48)?
The MIC was 0.5 µg/mL.

And the MIC (K. pneumoniae; K. pneumoniae BOU, OXA-48)?
Its MIC is 0.25 µg/mL.

What about the MIC (K. pneumoniae; K. pneumoniae CHA (OXA-48 + TEM-1)) of the same compound?
The MIC was 0.5 µg/mL.

And the MIC (K. pneumoniae; K. pneumoniae CHA, OXA-48 + TEM-1)?
The MIC was 0.5 µg/mL.

What about the MIC (K. pneumoniae; K. pneumoniae COL (KPC-2 + TEM-1 + SHV-1 + CTX-M-15)) of the same compound?
The MIC was 32 µg/mL.

And the MIC (K. pneumoniae; K. pneumoniae COO (CTX-M-15 + SHV28))?
Its MIC is 4 µg/mL.

What about the MIC (K. pneumoniae; K. pneumoniae COO, CTX-M-15 + SHV-28, non-carbapenemase producer, porin deficiency) of the same compound?
Its MIC is 4 µg/mL.

And the MIC (K. pneumoniae; K. pneumoniae DAL (OXA-48 + CTX-M-15 + TEM-1))?
The MIC was 0.38 µg/mL.

What about the MIC (K. pneumoniae; K. pneumoniae DAL, OXA-48 + TEM-1 + CTX-M-15) of the same compound?
Its MIC is 0.38 µg/mL.

What about the MIC (K. pneumoniae; K. pneumoniae DIA, OXA-48 + TEM-1b + CTX-M-15 + SHV-11 + OXA-1) of the same compound?
The MIC was greater than 32 µg/mL.

What about the MIC (K. pneumoniae; K. pneumoniae DUW, OXA-48 + TEM-1 + CTX-M-15 + SHV-28) of the same compound?
Its MIC is 32 µg/mL.

What about the MIC (K. pneumoniae; K. pneumoniae EGY (OXA-48 + CTX-M-15)) of the same compound?
Its MIC is 2 µg/mL.

What about the MIC (K. pneumoniae; K. pneumoniae EGY, OXA-48 + CTX-M-15) of the same compound?
Its MIC is 2 µg/mL.

And the MIC (K. pneumoniae; K. pneumoniae ELK (OXA-48 + TEM-1 + CTX-M-15 + SHV-11))?
The MIC was 0.38 µg/mL.

And the MIC (K. pneumoniae; K. pneumoniae ELK, OXA-48 + TEM-1 + CTX-M-15 + SHV-11)?
Its MIC is 0.38 µg/mL.

And the MIC (K. pneumoniae; K. pneumoniae ENN, VIM-1+ SHV-5)?
Its MIC is 0.38 µg/mL.

And the MIC (K. pneumoniae; K. pneumoniae FOS (CTX-M-15 + TEM-1 + SHV-11))?
The MIC was greater than 32 µg/mL.

What about the MIC (K. pneumoniae; K. pneumoniae FOS, CTX-M-15 + TEM-1 + SHV-11, non-carbapenemase producer, porin deficiency) of the same compound?
Its MIC is greater than 32 µg/mL.

And the MIC (K. pneumoniae; K. pneumoniae GES, KPC-2 + TEM-1 + SHV-11)?
The MIC was 1.5 µg/mL.

What about the MIC (K. pneumoniae; K. pneumoniae HOL (OXA-181 + CTX-M-15)) of the same compound?
Its MIC is 1 µg/mL.

And the MIC (K. pneumoniae; K. pneumoniae HOL, OXA-181 + CTX-M-15)?
Its MIC is 1 µg/mL.

What about the MIC (K. pneumoniae; K. pneumoniae HPA, OXA-48 + TEM-1 + CTX-M-15 + OXA-1) of the same compound?
The MIC was 12 µg/mL.

And the MIC (K. pneumoniae; K. pneumoniae IND (NDM-1 + OXA-1 + CTX-M-15))?
Its MIC is 4 µg/mL.

And the MIC (K. pneumoniae; K. pneumoniae KAM, KPC-3 + TEM-1 + SHV-11)?
The MIC was 2 µg/mL.

And the MIC (K. pneumoniae; K. pneumoniae KDH (DHA-2))?
Its MIC is 0.12 µg/mL.

And the MIC (K. pneumoniae; K. pneumoniae KDH, DHA-2, non-carbapenemase producer, overexpressed AmpC)?
The MIC was 0.12 µg/mL.

And the MIC (K. pneumoniae; K. pneumoniae KI2, NDM-1 + CTX-M-15 + OXA-1)?
The MIC was 4 µg/mL.
